Counter-ions that a name gives are not always drawn.
target: T1, human A3AR (Homo sapiens, UniProt P0DMS8); test: LOPAC library primary screen: single concentration (10 μM) inhibition of 25 nM CA200645 binding, PHERAstar FS; details: not given
T1 construct: expressed in transfected cells
T1 sequence (P0DMS8 1-318): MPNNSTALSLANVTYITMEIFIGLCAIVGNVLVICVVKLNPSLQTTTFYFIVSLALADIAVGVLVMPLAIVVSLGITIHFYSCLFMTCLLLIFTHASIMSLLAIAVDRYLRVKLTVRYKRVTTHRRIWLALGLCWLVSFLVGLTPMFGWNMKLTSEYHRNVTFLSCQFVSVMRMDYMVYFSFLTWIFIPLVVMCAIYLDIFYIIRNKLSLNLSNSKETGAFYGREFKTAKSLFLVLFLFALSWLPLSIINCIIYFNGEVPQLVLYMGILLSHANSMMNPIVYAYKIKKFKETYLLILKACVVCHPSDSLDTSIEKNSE

SMILES | % 25 nM CA200645 binding
C[N+]1(CCCCC[N+]2(C)CCCC2)CCCC1.O=C([O-])C(O)C(O)C(=O)O.O=C([O-])C(O)C(O)C(=O)O [Pentolinium di[L(+)-tartrate]] | 106.3 ± 2.7%
CC(=O)CCCCn1c(=O)c2c(ncn2C)n(C)c1=O [Pentoxifylline] | 81.9 ± 17.4%
C1CCc2nnnn2CC1 [Pentylenetetrazole] | 95.4 ± 8.7%
CCCN1C[C@H](CSC)C[C@@H]2c3cccc4[nH]cc(c34)C[C@H]21 [Pergolide methanesulfonate] | 82.8 ± 15.4%
OCCN1CCN(CCCN2c3ccccc3Sc3ccc(Cl)cc32)CC1 [Perphenazine] | 88.8 ± 23.6%
NCC(CP(=O)(O)O)c1ccc(Cl)cc1 (stereo not shown) [Phaclofen] | 107.2 ± 18.9%
NNCCc1ccccc1 [Phenelzine sulfate] | 99.4 ± 7.6%
CN(C)CCC(c1ccccc1)c1ccccn1 (stereo not shown) [Pheniramine maleate] | 91.5 ± 14.9%
CN1CC[C@@]2(C)c3cc(OC(=O)Nc4ccccc4)ccc3N(C)[C@@H]12 [Phenserine] | 81.1 ± 29.6%
Cc1ccc(N(CC2=NCCN2)c2cccc(O)c2)cc1 [Phentolamine mesylate] | 98.9 ± 10.7%
CNC[C@H](O)c1cccc(O)c1 [Phenylephrine hydrochloride] | 102.2 ± 12.7%
O=C(CCc1ccc(O)cc1)c1c(O)cc(O)cc1O [Phloretin] | 67.7 ± 15.2%
CCCCCCCCCCCCCC(=O)O[C@@H]1[C@@H](C)[C@@]2(O)[C@@H](C=C(CO)C[C@]3(O)C(=O)C(C)=C[C@@H]23)[C@@H]2C(C)(C)[C@]12OC(C)=O [Phorbol 12-myristate 13-acetate] | 80.3 ± 5.6%
C[C@@H]1O[C@@H]1P(=O)(O)O [Phosphomycin disodium] | 98.9 ± 12.7%
O=C(O)CP(=O)(O)O [Phosphonoacetic acid] | 103.4 ± 12.3%
Oc1cc(O)cc(/C=C/c2ccc(O)c(O)c2)c1 [Piceatannol] | 79.1 ± 22.1%
COc1ccc(C(=O)NCc2cccnc2)cc1C(=O)NCc1cccnc1 [Picotamide] | 109.0 ± 15.4%
NS(=O)(=O)C#Cc1ccccc1 [Pifithrin-mu] | 92.3 ± 34.4%
CC[C@@H]1C(=O)OC[C@@H]1Cc1cncn1C [Pilocarpine nitrate] | 92.9 ± 2.4%
O=c1[nH]c2ccccc2n1C1CCN(CCCC(c2ccc(F)cc2)c2ccc(F)cc2)CC1 [Pimozide] | 78.2 ± 10.9%

SMILES | % 25 nM CA200645 binding
CC(N/C(=N\C#N)Nc1ccncc1)C(C)(C)C (stereo not shown) [Pinacidil] | 105.1 ± 8.3%
CC(C)NCC(O)COc1cccc2[nH]ccc12 (stereo not shown) [Pindolol] | 84.7 ± 11.8%
Clc1ccc2c(N3CCN(CCCN4CCN(c5ccnc6cc(Cl)ccc56)CC4)CC3)ccnc2c1 [Piperaquine tetraphosphate tetrahydrate] | 96.8 ± 7.2%
NC(=O)CN1CCCC1=O [Piracetam] | 110.0 ± 4.3%
Cc1ccc(=O)n(-c2ccccc2)c1 [Pirfenidone] | 96.4 ± 15.8%
O=C(O)/C=C\C(=O)O.c1cnc(N2CCN(Cc3ccc4c(c3)OCO4)CC2)nc1 [Piribedil maleate] | 97.8 ± 1.7%
CN1C(C(=O)Nc2ccccn2)=C(O)c2ccccc2S1(=O)=O [Piroxicam] | 101.0 ± 12.2%
COc1cc([C@@H]2c3cc4c(cc3[C@H](O)[C@H]3COC(=O)[C@H]23)OCO4)cc(OC)c1OC [Podophyllotoxin] | 97.7 ± 17.3%
O=C(C1CCCCC1)N1CC(=O)N2CCc3ccccc3C2C1 (stereo not shown) [Praziquantel] | 100.5 ± 15.0%
COc1cc2nc(N3CCN(C(=O)c4ccco4)CC3)nc(N)c2cc1OC [Prazosin hydrochloride] | 109.3 ± 23.7%
CC(=O)[C@H]1CC[C@H]2[C@@H]3CC=C4C[C@@H](OS(=O)(=O)[O-])CC[C@]4(C)[C@H]3CC[C@]12C.[Na+] [Pregnenolone sulfate sodium] | 100.9 ± 23.1%
CCCNC(C)C(=O)Nc1ccccc1C (stereo not shown) [Prilocaine hydrochloride] | 106.9 ± 9.7%
CCC1(c2ccccc2)C(=O)NCNC1=O [Primidone] | 96.1 ± 4.9%
CCN(CC)CCNC(=O)c1ccc(N)cc1 [Procainamide hydrochloride] | 89.6 ± 33.7%
CN1CCN(CCCN2c3ccccc3Sc3ccc(Cl)cc32)CC1 [Prochlorperazine dimaleate] | 90.4 ± 18.3%
CCCN(CCC)C(=O)C(CCC(=O)O)NC(=O)c1ccccc1 (stereo not shown) [Proglumide] | 107.1 ± 0.6%
CN(C)CCCN1c2ccccc2Sc2ccccc21 [Promazine hydrochloride] | 80.6 ± 8.4%
CC(CN1c2ccccc2Sc2ccccc21)N(C)C (stereo not shown) [Promethazine hydrochloride] | 96.7 ± 11.4%
CCCNCC(O)COc1ccccc1C(=O)CCc1ccccc1 (stereo not shown) [Propafenone hydrochloride] | 111.3 ± 10.1%
CC(C)[N+](C)(CCOC(=O)C1c2ccccc2Oc2ccccc21)C(C)C [Propantheline bromide] | 95.5 ± 4.8%

SMILES | % 25 nM CA200645 binding
CC(C)c1cccc(C(C)C)c1O [Propofol] | 96.0 ± 3.0%
CNCCCC1c2ccccc2C=Cc2ccccc21 [Protriptyline hydrochloride] | 101.6 ± 7.3%
O=c1ccc2c(OCCCCc3ccccc3)c3ccoc3cc2o1 [Psora-4] | 66.4 ± 9.2%
NCCCCN [Putrescine dihydrochloride] | 106.2 ± 11.7%
NC(=O)c1cnccn1 [Pyrazinecarboxamide] | 88.9 ± 26.1%
CN(C)C(=O)Oc1ccc[n+](C)c1 [Pyridostigmine bromide] | 92.0 ± 6.7%
COc1ccc(CN(CCN(C)C)c2ccccn2)cc1 [Pyrilamine maleate] | 84.6 ± 34.1%
Oc1ccccc1O [Pyrocatechol] | 91.0 ± 7.4%
CCN(CC)CCCC(C)Nc1c2ccc(Cl)cc2nc2ccc(OC)cc12 (stereo not shown) [Quinacrine dihydrochloride] | 98.2 ± 4.9%
CCCN1CCC[C@@H]2Cc3nc(N)ncc3C[C@H]21.Cl.Cl [Quinelorane dihydrochloride] | 105.7 ± 9.9%
C=C[C@H]1C[N@@]2CC[C@H]1C[C@@H]2[C@@H](O)c1ccnc2ccc(OC)cc12 [Quinidine sulfate] | 111.6 ± 16.6%
O=C(O)/C=C\C(=O)O.O=[N+]([O-])c1ccc2nc(N3CCNCC3)ccc2c1 [Quipazine, 6-nitro-, maleate] | 100.0 ± 4.7%
CCCN1CCC[C@H](c2cccc(O)c2)C1.Cl [R(+)-3PPP hydrochloride] | 88.4 ± 12.1%
Br.C=CCN1CCc2c(cc(O)c(O)c2Br)[C@@H](c2ccccc2)C1 [R(+)-6-Bromo-APB hydrobromide] | 77.8 ± 20.1%
C[C@@]1(C2CCCC2)Cc2cc(OCC(=O)O)c(Cl)c(Cl)c2C1=O [R(+)-IAA-94] | 95.5 ± 13.0%
CN1CCc2cc(Cl)c(O)cc2[C@@H](c2ccccc2)C1.Cl [R(+)-SCH-23390 hydrochloride] | 96.2 ± 12.3%
COc1ccc2c(c1O)-c1cccc3c1[C@@H](C2)N(C)CC3.Cl [R(-)-Apocodeine hydrochloride] | 70.5 ± 34.0%
C[C@H](Cc1ccccc1)Nc1ncnc2c1ncn2[C@@H]1O[C@H](CO)[C@@H](O)[C@H]1O [R(-)-N6-(2-Phenylisopropyl)adenosine] | 69.2 ± 26.4%

same assay, conditions: % of control wells (1% DMSO and 25 nM CA200645); compounds at 10 µM; […]; mean ± SD, three experiments in duplicate

SMILES | % 25 nM CA200645 binding
O=c1c(O)c(-c2ccc(O)c(O)c2)oc2cc(O)cc(O)c12 [Quercetin dihydrate] | 25.2 ± 6.9%

same assay, conditions: % of control wells (1% DMSO and 25 nM CA200645); compounds at 10 µM; whole live cells expressing the A3AR; mean ± SD, three experiments in duplicate

SMILES | % 25 nM CA200645 binding
NC(=Nc1ccccc1)NC(=O)c1nc(Cl)c(N)nc1N [Phenamil methanesulfonate] | 100.4 ± 3.8%
Cc1nc2ccccn2c(=O)c1CCN1CCC(C(=O)c2ccc(F)cc2)CC1 [Pirenperone] | 88.6 ± 5.4%

same assay, conditions: compounds tested at 10 µM; % of control wells (1% DMSO and 25 nM CA200645); whole live cells expressing the A3AR; mean ± SD, three experiments in duplicate

SMILES | % 25 nM CA200645 binding
CC(C)C[C@H](NP(=O)([O-])O[C@H]1O[C@H](C)[C@@H](O)[C@H](O)[C@@H]1O)C(=O)N[C@@H](Cc1c[nH]c2ccccc12)C(=O)[O-].[Na+].[Na+] [Phosphoramidon disodium] | 101.2 ± 7.1%
CCC(=O)c1ccc2c(c1)N(CCCN(C)C)c1ccccc1S2 [Propionylpromazine hydrochloride] | 101.0 ± 0.8%
C[C@@H]1C(=O)NC2=Nc3cccc(Cl)c3CN21 [Quazinone] | 93.4 ± 5.4%

Source: publication PMC5733478, “A Non-imaging High Throughput Approach to Chemical Library Screening at the Unmodified Adenosine-A3 Receptor in Living Cells” (Frontiers in Pharmacology, 2017)
